“And” between values parts separate entries of the source, which are not always exact repeats. Equal values may be shown once. “Also recorded” adds a separate entry of the source. Read-outs that look alike come from different tables or passages of the source. Where a SMILES comes first, the peptide text is derived from it. Bridges are numbered along the chain shown (N, C = ends). [ ]: non-standard residue; d: D form. The star is where a group is joined. Octanoyl = CCCCCCCC(=O)*; Dab = NCC[C@H](N)C(=O)O; Abu = CC[C@H](N)C(=O)O
Legend:
K. pneumoniae JMI 27068 = experiment: MIC assay (CLSI broth microdilution; checkerboard with rifampin); format: cell-based, Klebsiella pneumoniae; conditions: polymyxin-nonsusceptible strain
Method: (§1) Synergy studies were performed by using polymyxin derivatives in combination with rifampin, a model compound for such antibacterial agents that the intact outer membrane of Gram-negative bacteria acts as a permeability barrier.

A. baumannii CMI 417 = experiment: as above; format: cell-based, Acinetobacter baumannii; conditions: polymyxin-nonsusceptible strain
Method: as §1

P. aeruginosa JMI 7445 = test system: P. aeruginosa JMI 7445
Method: as §1

P. aeruginosa ATCC 27853 = test system: P. aeruginosa ATCC 27853
Method: as §1

K. pneumoniae JMI 27072 = test system: K. pneumoniae JMI 27072
Method: as §1

E. coli ATCC 25922 = test system: E. coli ATCC 25922
Method: as §1

A. baumannii ATCC 19606 = test system: A. baumannii ATCC 19606
Method: as §1

A. baumannii JMI 48125 = test system: A. baumannii JMI 48125
Method: as §1

K. pneumoniae ATCC 43816 = test system: K. pneumoniae ATCC 43816
Method: as §1

E. coli JMI 3328 = test system: E. coli JMI 3328
Method: as §1

[1] = 7-day intravenous toxicity (nephrotoxicity) study in cynomolgus monkeys; conditions: for kidney injury markers (S-BUN, S-Crea, U-NAG/Crea, U-GGT/Crea) / animals euthanized due to severe nephrotoxic effects: IV infusion TID, seven days; for animals euthanized due to severe nephrotoxic effects: 3 animals per group
Method: In vivo toxicity and toxicokinetic studies were performed by using cynomolgus monkeys. The laboratory that performed the animal studies is accredited by the Association for Assessment and Accreditation of Laboratory Animal Care (AAALAC), has an Animal Welfare Assurance issued by the Office of Laboratory Animal Welfare (OLAW), is registered with the United States Department of Agriculture (USDA), and has an Institutional Animal Care and Use Committee (IACUC) responsible for compliance with applicable laws and regulations concerning the humane care and use of laboratory animals.
Naive female cynomolgus monkeys were acclimatized to study room for 28 days during which each animal was implanted with a permanent indwelling femoral catheter to permit continuous intravenous infusions. The animals were allowed surgical recovery period of at least 2 weeks before initiating dosing.
Polymyxin B sulfate was from Sigma-Aldrich (catalogue number P0972, lot number BCBF8382V). On each day of use, appropriate quantities of NAB739, NAB815 or polymyxin B were weighed and dissolved in appropriate volumes of sterile saline to prepare a stock solution for each test article and positive control. A correction factor was used in the stock solution preparation to account for both the purity and sulfate content in each test article. Accordingly, the dose (such as 36 mg/kg/d) refers to the dose of the pure peptide as its free base form, not as its sulfate salt.
The doses were the following: polymyxin B 18 mg/kg/d (Group 1), polymyxin B 24 mg/kg/d (Group 2), NAB739 24 mg/kg/d (Group 3), NAB739 36 mg/kg/d (Group 4), NAB815 24 mg/kg/d (Group 5), NAB815 36 mg/kg/d (Group 6). Three animals were included in each study groups.
(§2) For seven days, the animals were dosed by intravenous (IV) infusion three times daily (TID) at a dose volume of 10 mL/kg for 1 hour (± 10 minutes), 8 ± 0.5 hours apart. The day of initial dose administration was designated study Day 1, with subsequent days consecutively numbered. Days prior to the initial dose administration were consecutively numbered with the final day of acclimation referenced as Day -1.
(§3) The following parameters were evaluated at designed intervals: clinical observations, body weights, clinical pathology (hematology, coagulation, serum chemistry, urinalysis including urine sediments and urine chemistry), toxi-cokinetics (plasma and urine) and anatomic pathology (kidney). In cases of animals sacrificed on an unscheduled basis, samples were taken on the day of the sacrifice.
On the day of necropsy, animals were sedated with ketamine, weighed, and anesthetized with an intravenous injection of a commercial pentobarbital and phenytoin solution, followed by exsanguinations.
At necropsy, gross observations and organ weights were recorded, and specific tissues were collected. Histopathology was conducted on sections of kidney stained with hematoxylin and eosin (H&E).
The figures also show Urine N-acetyl-β-D-glucosaminidase/urine creatinine ratio (U-NAG/Crea; Fig. 3) and Urine Gamma Glutamyltransferase/urine creatinine ratio (U-GGT/Crea; Fig. 4), both urine biomarkers for kidney injury, in those animals. S-Crea and U-Crea were measured by using an Olympus Analyzer (OA) and the modified Jaffe method, S-BUN by using OA and urease/L-glutamate dehydrogenase. U-NAG was measured by using OA/enzymatic, and U-GGT by using OA and glutamyl-carboxy-p-nitroanilide IFCC.
The presence of the following nephropathological parameters was recorded in each animal: tubular basophilia (regeneration), tubular degeneration/necrosis, infiltration (by mononuclear and/or mixed inflammatory cells), tubular dilatation, and tubular casts.

E. coli JMI 109 = experiment: MIC assay (CLSI broth microdilution; checkerboard with rifampin); format: cell-based, Escherichia coli; conditions: polymyxin-nonsusceptible strain
Method: as §1

[2] = Toxicokinetics (plasma and urine levels by LC-MS/MS) in cynomolgus monkeys; conditions: for urinary recoveries (0-8 h urine collection) / urine concentrations (in 0-8 h urine collection): 36 mg/kg/d; for concentration in the urine: after infusion at 8 mg/kg, highest found either in the 0-4 h or 4-8 h sample, given for each animal; for concentration in the urine / 0-8 h recovery in urine: 8 mg/kg; for 0-8 h recovery in urine: after the infusion of 8 mg/kg, percentages given for each animal
Method: as §2, §3
Plasma and urine concentrations for toxicokinetic (TK) studies were determined by using liquid chromatograph interfaced with a mass spectrometer after precipitation of proteins. A sample (100 µL) was mixed with internal standard solution in water:formic acid (99:1 v/v; […]). Then, 600µL of 100:1 acetonitrile:formic acid was added. The plates were centrifuged at 3200 rpm for 5 minutes. Using a Tomtec Quadra96, a 450 µL aliquot was transferred to a new 96-well plate and dried under nitrogen at 40°C. Then, 200 µL of water:methanol:formic acid (85:15:1 1 v/v) was added and the plate sealed for LC-MS/MS injection. LC-MS system consisted of Waters Acquity liquid chromatograph interfaced with a Thermo Scientific TSQ Quantitative triple quadrupole MS with ionization in the positive ion mode. Each sample (20 µL) was injected onto a Waters Acquity BEH Shield RP18 column (2.1 x 50 mm; 1.7 µm) equilibrated at 50°C. Mobile Phase A was 85:15:1 v/v water:methanol:formic acid. Mobile Phase B was 50:50:1 v/v acetonitrile:methanol:formic acid.
Peak area ratios from the calibration standard responses were regressed using a (1/concentration^2) linear fit for polymyxin B using colistin as the internal standard. For NAB739 and NAB815, peak areas from the calibration standard responses were regressed using a (1/concentration^2) quadratic fit (without the use of an internal standard).
Toxicokinetic analysis was performed by using WinNonlin Phoenix version 6.3 software (Pharsight, Cary, NC). For plasma TK, noncompartmental IV infusion model was used.
The data is from the cynomolgus monkey studies described in the Example 3, where the peptides were administered as a 1-hour intravenous infusion thrice a day. The plasma and urine levels of the peptides were determined as in Example 3.

[3] = alone, Müller-Hinton II broth, 35°C, 20 hours
[4] = in combination with rifampin (0.25 µg/mL), duplicate checkerboard assays

SMILES	MIC (K. pneumoniae JMI 27068; [3])	MIC (K. pneumoniae JMI 27068; [4])	MIC (A. baumannii CMI 417; [3])	MIC (A. baumannii CMI 417; [4])	MIC (P. aeruginosa JMI 7445; [3])	MIC (P. aeruginosa JMI 7445; [4])	MIC (P. aeruginosa ATCC 27853; [4])	MIC (K. pneumoniae JMI 27072; [3])	MIC (K. pneumoniae JMI 27072; [4])	MIC (E. coli ATCC 25922; [3])	MIC (A. baumannii ATCC 19606; [3])	MIC (A. baumannii ATCC 19606; [4])	MIC (A. baumannii JMI 48125; [3])	MIC (A. baumannii JMI 48125; [4])	MIC (K. pneumoniae ATCC 43816; [3])	MIC (E. coli JMI 3328; [3])	kidney injury markers (S-BUN, S-Crea, U-NAG/Crea, U-GGT/Crea) ([1]; 24 mg/kg/d)	animals euthanized due to severe nephrotoxic effects ([1]; 36 mg/kg/d)	MIC (E. coli JMI 109; [3])	MIC (E. coli JMI 109; [4])	other results
CCCCCCCC(=O)N[C@H](C(=O)N[C@H](CO)C(=O)N[C@H]1CCNC(=O)[C@H]([C@@H](C)O)NC(=O)[C@H](CCN)NC(=O)[C@H](CCN)NC(=O)[C@H](CC(C)C)NC(=O)[C@@H](Cc2ccccc2)NC(=O)[C@H](CCN)NC1=O)[C@@H](C)O [NAB739, octanoyl -Thr - DSer-[cyclo-α,γDab - αDab - DPhe- Leu - αDab -αDab - Thr]] (Octanoyl-T[dS][Dab][Dab][dF]L[Dab][Dab]T; lactam 3-C)	128 µg/mL	2 µg/mL	128 µg/mL	2 µg/mL	4 µg/mL	4 µg/mL	4 to 8 µg/mL	2 to 4 µg/mL	1 µg/mL	2 µg/mL	4 µg/mL	0.5 µg/mL	2 to 4 µg/mL	0.5 µg/mL	4 µg/mL	2 µg/mL	one animal receiving NAB739 displayed marked increase in S-Crea	One animal	32 µg/mL	1 µg/mL	MIC (E. coli ATCC 25922): 1 µg/mL; MIC (K. pneumoniae ATCC 43816): 1 to 2 µg/mL; MIC (E. coli JMI 3328): 1 µg/mL; urinary recoveries (0-8 h urine collection) ([2]; day 1, per animal): 20.4% and 26.4%; urine concentrations (in 0-8 h urine collection) ([2]; day 1, per animal): 92 µg/mL and 33 µg/mL and 82 µg/mL; urinary recoveries (0-8 h urine collection) ([2]; day 7, per animal): 30.6% and 55.8%; urine concentrations (in 0-8 h urine collection) ([2]; day 7, per animal): 268 µg/mL and 348 µg/mL; concentration in the urine [2]: 80 µg/mL and 140 µg/mL and 155 µg/mL; 0-8 h recovery in urine [2]: up to 20 % of the dose and ≤ 91 % of the dose and ≤ 92 % of the dose
CCCCCCCC(=O)N[C@@H](CCN)C(=O)N[C@H](C(=O)N[C@@H](C(=O)N[C@H]1CCNC(=O)[C@H]([C@@H](C)O)NC(=O)[C@H](CCN)NC(=O)[C@H](CC)NC(=O)[C@H](CC(C)C)NC(=O)[C@@H](Cc2ccccc2)NC(=O)[C@H](CCN)NC1=O)[C@H](C)O)[C@@H](C)O [NAB815, octanoyl - αDab -Thr - DThr-[cyclo-α,yDab - αDab - DPhe- Leu -Abu -αDab - Thr]] (Octanoyl-[Dab]T[dT][Dab][Dab][dF]L[Abu][Dab]T; lactam 4-C)	128 µg/mL	4 µg/mL	256 µg/mL	2 µg/mL	8 µg/mL	4 µg/mL	>8 µg/mL	2 to 4 µg/mL	1 to 2 µg/mL	2 µg/mL	4 µg/mL	0.5 to 2 µg/mL	2 µg/mL	0.5 to 2 µg/mL	2 to 4 µg/mL	4 µg/mL	None of the parameters was elevated	underwent no prescheduled necropsy	128 µg/mL	1 µg/mL	MIC (P. aeruginosa ATCC 27853; [3]): 16 µg/mL; MIC (E. coli ATCC 25922; [4]): 1 µg/mL; MIC (K. pneumoniae ATCC 43816; [4]): 1 µg/mL; MIC (E. coli JMI 3328; [4]): 1 µg/mL; kidney injury markers (S-BUN, S-Crea, U-NAG/Crea, U-GGT/Crea) ([1]; 36 mg/kg/d): only minor if any elevations in the four parameters; kidney histopathology findings (nephropathological parameters) ([1]; 36 mg/kg/d, H&E kidney sections, five parameters graded 0 no significant findings, 1 minimal, 2 mild, 3 moderate, 4 marked): moderate findings, both in one parameter only; also recorded: no other than minimal or mild findings; urinary recoveries (0-8 h urine collection) ([2]; day 1, per animal): 14.3% and 20.9% and 36.3%; urine concentrations (in 0-8 h urine collection) ([2]; day 1, per animal): 173 µg/mL and 265 µg/mL and 114 µg/mL; urinary recoveries (0-8 h urine collection) ([2]; day 7, per animal): 40.5% and 41.9%; urine concentrations (in 0-8 h urine collection) ([2]; day 7, per animal): 17 µg/mL and 62 µg/mL and 149 µg/mL; concentration in the urine [2]: 175 µg/mL and 225 µg/mL and 260 µg/mL; 0-8 h recovery in urine [2]: up to 38 % of the dose and ≤ 55 % of the dose and ≤ 88 % of the dose

— patent EP3045469A1, “POLYMYXIN DERIVATIVE AND USES THEREOF” (priority 2015, dated 2016)
